Reference: PubChem BioAssay (NCI)
Several values for one entry are separate records, joined by “and”; a condition that tells them apart may be missing. Equal values may be shown once.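 Cultured in 96-well plates, cells were exposed to test compound for 48 hours across five concentrations. GI50 is the concentration that inhibits growth by half. The concentration for full growth arrest is given as TGI.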 Where a SMILES comes first, the peptide text is derived from it. The star is where a group is joined. Boc = CC(C)(C)OC(=O)*

Key:
Assay in all cases: DTP human tumour cell line panel, 48 h
OVCAR-8 ovarian = test system: OVCAR-8 ovarian
HCC-2998 colon = test system: HCC-2998 colon
IGROV1 ovarian = test system: IGROV1 ovarian
HOP-92 NSCLC = test system: HOP-92 NSCLC
BT-549 breast = test system: BT-549 breast
RPMI-8226 leukemia = test system: RPMI-8226 leukemia
KM12 colon = test system: KM12 colon
U251 CNS = test system: U251 CNS
A549 NSCLC = test system: A549 NSCLC
OVCAR-5 ovarian = test system: OVCAR-5 ovarian

| Compound | TGI (OVCAR-8 ovarian) | TGI (HCC-2998 colon) | TGI (IGROV1 ovarian) | TGI (HOP-92 NSCLC) | TGI (BT-549 breast) | TGI (RPMI-8226 leukemia) | TGI (KM12 colon) | TGI (U251 CNS) | TGI (A549 NSCLC) | TGI (OVCAR-5 ovarian) | GI50 (HCC-2998 colon) | GI50 (IGROV1 ovarian) | GI50 (HOP-92 NSCLC) | GI50 (KM12 colon) | GI50 (U251 CNS) | GI50 (A549 NSCLC) | GI50 (OVCAR-5 ovarian) | GI50 (OVCAR-8 ovarian) [µM] | GI50 (BT-549 breast) | GI50 (RPMI-8226 leukemia) |
| --- | --- | --- | --- | --- | --- | --- | --- | --- | --- | --- | --- | --- | --- | --- | --- | --- | --- | --- | --- | --- |
| S=c1[nH]c2c(Cl)c(Cl)c(Cl)c(Cl)c2[nH]1 | 57.4 µM | 23.6 µM | 37.8 µM | 53.6 µM | 52.4 µM | 30.1 µM | 33.8 µM | > 100 µM | > 100 µM | 65 µM |  |  |  |  |  |  |  |  |  |  |
| C/C(=N\NC(=S)N1CCCCCC1)c1ccccn1 | 3.48 µM and 4.57 µM | 2.03 µM and 1.35 µM | 2.66 µM and 6.59 µM | 0.3 µM | 1.76 µM | 0.321 µM and 0.132 µM | 0.517 µM and 5.16 µM | 1.24 µM and 1.29 µM | 6.46 µM and 2.49 µM | 2.67 µM and 3.98 µM | 0.0374 µM | < 0.0122 µM | 0.217 µM | 0.0688 µM | < 0.0131 µM | < 0.0188 µM | < 0.0165 µM |  |  |  |
| C[C@@]12CCC[C@@](C)(C(=O)O)C1CC[C@]13CC(=O)[C@](CO)(C1)[C@@H](O)CC32 (stereo partly specified) | > 100 µM | > 100 µM | > 100 µM | > 100 µM | > 100 µM | > 100 µM | > 100 µM | > 100 µM | > 100 µM | > 100 µM | > 100 µM | > 100 µM | > 100 µM | > 100 µM | > 100 µM | > 100 µM | > 100 µM | > 100 | > 100 µM | > 100 µM |
| CC(C)=CCc1cc(O)cc2c1OC(C=C(C)C)C1=C2C(=O)C2=C(C1=O)S(=O)(=O)CCN2 (stereo unspecified) | 6.72 µM | > 16.7 µM | 9.17 µM | > 16.7 µM | > 16.7 µM | 12.2 µM | > 16.7 µM | 5.15 µM | > 16.7 µM | 12.5 µM | 5.53 µM | 3.23 µM | 6.05 µM | 5.8 µM | 2.84 µM | 6.14 µM | 4.34 µM | 3.09 | 5.18 µM | 4.16 µM |
| Cc1ccc(Nc2oc(-c3ccccc3)nc2[P+](c2ccccc2)(c2ccccc2)c2ccccc2)cc1 | 3.34 µM | 2.4 µM | 2.37 µM | 1.02 µM | 2.92 µM | 0.639 µM | 2.46 µM | 1.71 µM | 3.23 µM | 4.38 µM | 1.03 µM | 0.889 µM | 0.209 µM | 0.861 µM | 0.538 µM | 0.938 µM | 1.63 µM | 1.04 | 1.41 µM | 0.243 µM |
| CCc1ccc(/C=C/c2ccc(O)c3ncccc23)[n+](C)c1 | > 100 µM | > 100 µM | > 100 µM | 3.54 µM | > 100 µM | > 100 µM | > 100 µM | > 100 µM | > 100 µM | > 100 µM | > 30.5 µM | 11.4 µM | 0.0293 µM | 0.512 µM | 0.661 µM | 0.0377 µM | > 100 µM | 0.668 | 15.1 µM | 3.08 µM |
| CN(C)c1ncnc2c1ncn2CCn1cnc2c(N(C)C)ncnc21 | > 100 µM | > 100 µM | > 100 µM | > 100 µM | > 100 µM | > 100 µM | > 100 µM | > 100 µM | > 100 µM | > 100 µM |  |  |  |  |  |  |  |  |  |  |
| COc1cc(/C=C/C(=O)c2cccc(-n3cc(-c4ccc(Cl)cc4)[nH]c3=O)c2)ccc1O | > 27.3 µM | 5.5 µM | 5.61 µM | 7.05 µM | 10.9 µM | 3.76 µM | 3.42 µM | 6.01 µM | > 37.7 µM | 15.1 µM | 2.35 µM | 2 µM | 1.52 µM | 1.6 µM | 2.19 µM | 4.67 µM | 6.45 µM | 2.39 | 2.89 µM | 1.33 µM |
| COC(=O)C(C)NC(=O)C(CCSC)NC(=O)C(Cc1ccccc1)NC(=O)OC(C)(C)C (stereo not drawn) (Boc-Phe-Met-Ala-OMe; configuration not given here) | > 100 µM | 36.4 µg/mL and > 100 µM | > 100 µM | > 100 µM | > 100 µM | 49.5 µg/mL and > 100 µM | 51.1 µg/mL and > 100 µM | 67 µg/mL and > 100 µM | > 100 µM | > 100 µM | 20.1 µg/mL | 53.5 µg/mL |  | 22.4 µg/mL | 22.6 µg/mL | 35.7 µg/mL | 31.6 µg/mL |  | 18.3 µg/mL | 22.4 µg/mL |
| C=COC(=O)N[C@H]1CCc2cc(OC)c(OC)c(OC)c2-c2ccc(SC)c(=O)cc21 | > 80.7 µM | 85.6 µM | > 100 µM | 22.8 µM | < 0.01 µM | 52.1 µM | 0.0388 µM | 3.02 µM | 72.7 µM | > 75 µM |  |  |  |  |  |  |  |  |  |  |
| C=C1C(=O)OC2CC(C)C(C(O)CC(C)O)=CCC12 (stereo unspecified) | 43.8 µM | 33.2 µM | 43.4 µM | 27.8 µM | 30.2 µM | 34.2 µM | 46.4 µM | 39.4 µM | > 80.6 µM | 30.7 µM |  |  |  |  |  |  |  |  |  |  |
| O=C(/C=C/C=C/c1ccccc1)c1ccccc1 | 26.1 µM | 31.7 µM | 31.2 µM | 39.1 µM | 43.5 µM | 72.5 µM | 27.3 µM | 27 µM | 42.7 µM | 28.8 µM |  |  |  |  |  |  |  |  |  |  |
| CCc1c(Cl)c(C)cc(O)c1Cl | > 100 µM | 26.7 µM | > 100 µM | 92.3 µM | 42.8 µM | 57.5 µM | > 100 µM | 29 µM | > 100 µM | > 100 µM |  |  |  |  |  |  |  |  |  |  |
| Cn1c(Nc2ccc(C(F)(F)F)cc2)nc2cc(Oc3ccnc(-c4ncc(C(F)(F)F)[nH]4)c3)ccc21 | 14.1 µM | 13.1 µM | 15.4 µM | 7.26 µM | 12.2 µM | 15.2 µM | 12.5 µM | 12.9 µM | 11.7 µM | 17.4 µM | 1.25 µM | 0.0668 µM | 0.408 µM | 1.3 µM | 0.154 µM | 0.231 µM | 1.53 µM | 0.775 | 0.155 µM | 1.49 µM |
| O=[N+]([O-])c1ccc(CI)cc1 | 13.3 µM | 11.8 µM | 14.8 µM | 16.5 µM | 10.8 µM | 5.68 µM | 12 µM | 10.4 µM | 14.5 µM | 20.4 µM | 3.43 µM | 4.31 µM | 4.25 µM | 3.52 µM | 2.91 µM | 3.68 µM | 6.2 µM | 3.71 | 3.54 µM | 2.3 µM |
| Nc1c(C(=O)c2ccccc2)cnn1-c1ccc(F)cc1 | > 25 µM | > 25 µM | > 25 µM | > 25 µM | > 25 µM | > 25 µM | > 25 µM | > 25 µM | > 25 µM | > 25 µM | > 25 µM | > 25 µM | > 19.3 µM | > 25 µM | > 25 µM | > 25 µM | > 25 µM | > 25 | > 25 µM | > 25 µM |
| COC(=O)C1=CN(CC2=CC(=O)C(C)=CC2=O)C=C(C(=O)OC)C1c1cccc(OC)c1 | > 100 µM | 32.6 µM | > 58.1 µM | 33.8 µM | 36.6 µM | 5.06 µM | 26.9 µM | 30.5 µM | > 67.2 µM | 42 µM | 12.5 µM | 12.8 µM | 10.6 µM | 8.34 µM | 8.47 µM | 25.1 µM | 19 µM | > 51.9 | 8.61 µM | 1.95 µM |
| COc1ccc2c(c1)c[n+](C)c1c3cc(OC)c(OC)cc3ccc21 | 4.61 µM and 6.34 µM | 3.71 µM and 19.9 µM | 2.85 µM and 15.8 µM | 9.98 µM and 35.1 µM | 9.63 µM and 26.2 µM | 7.28 µM | 2.79 µM and 9.42 µM | 2.3 µM and 5.45 µM | 10.3 µM | 5.17 µM and 25 µM | 1.86 µM and 7.34 µM | 1.39 µM and 4.4 µM | 3.69 µM and 14.6 µM | 1.21 µM and 2.88 µM |  |  | 1.52 µM and 11.8 µM |  | 2.4 µM and 10.2 µM |  |
| BrCc1cccc(C[P+](c2ccccc2)(c2ccccc2)c2ccccc2)c1 | > 100 µM | > 100 µM | > 100 µM | 52.4 µM | > 100 µM | 22.7 µM | > 100 µM | > 100 µM | > 100 µM | > 100 µM | 21.8 µM | 21.6 µM | 2.84 µM | 16 µM | 6.86 µM | 42.3 µM | 30.2 µM | 6.65 | 34.5 µM | 2.18 µM |
| COc1ccc(C2=C(c3ccc(OC)cc3)C(=O)N3CCCC3C2)cc1 (stereo unspecified) | > 100 µM | 93.4 µM | > 100 µM | > 100 µM | > 89.8 µM | > 100 µM | > 100 µM | > 100 µM | > 100 µM | > 100 µM | 26.4 µM | 18.1 µM | > 95.1 µM | 9.26 µM | 5.99 µM | 9.42 µM | > 83.7 µM | 10.4 | 17.1 µM | > 100 µM |
| COc1ccccc1Nc1ncc(-c2ccccc2)o1 | > 25 µM | > 25 µM | > 25 µM | > 25 µM | > 25 µM | > 25 µM | > 25 µM | > 25 µM | > 25 µM | > 25 µM | > 25 µM | > 25 µM | > 25 µM | 9.77 µM | > 25 µM | > 25 µM | > 25 µM | > 25 | > 25 µM | > 25 µM |
